These results are taken from ChEMBL document CHEMBL1125151, “Aldosterone antagonists. 3. Synthesis and activities of steroidal 7 alpha-(alkoxycarbonyl)-15,16-methylene spirolactones” (1990).

For assay [1], the target named is T1, Mineralocorticoid receptor (Rattus norvegicus) (UniProt P22199).
T1 sequence (whole entry): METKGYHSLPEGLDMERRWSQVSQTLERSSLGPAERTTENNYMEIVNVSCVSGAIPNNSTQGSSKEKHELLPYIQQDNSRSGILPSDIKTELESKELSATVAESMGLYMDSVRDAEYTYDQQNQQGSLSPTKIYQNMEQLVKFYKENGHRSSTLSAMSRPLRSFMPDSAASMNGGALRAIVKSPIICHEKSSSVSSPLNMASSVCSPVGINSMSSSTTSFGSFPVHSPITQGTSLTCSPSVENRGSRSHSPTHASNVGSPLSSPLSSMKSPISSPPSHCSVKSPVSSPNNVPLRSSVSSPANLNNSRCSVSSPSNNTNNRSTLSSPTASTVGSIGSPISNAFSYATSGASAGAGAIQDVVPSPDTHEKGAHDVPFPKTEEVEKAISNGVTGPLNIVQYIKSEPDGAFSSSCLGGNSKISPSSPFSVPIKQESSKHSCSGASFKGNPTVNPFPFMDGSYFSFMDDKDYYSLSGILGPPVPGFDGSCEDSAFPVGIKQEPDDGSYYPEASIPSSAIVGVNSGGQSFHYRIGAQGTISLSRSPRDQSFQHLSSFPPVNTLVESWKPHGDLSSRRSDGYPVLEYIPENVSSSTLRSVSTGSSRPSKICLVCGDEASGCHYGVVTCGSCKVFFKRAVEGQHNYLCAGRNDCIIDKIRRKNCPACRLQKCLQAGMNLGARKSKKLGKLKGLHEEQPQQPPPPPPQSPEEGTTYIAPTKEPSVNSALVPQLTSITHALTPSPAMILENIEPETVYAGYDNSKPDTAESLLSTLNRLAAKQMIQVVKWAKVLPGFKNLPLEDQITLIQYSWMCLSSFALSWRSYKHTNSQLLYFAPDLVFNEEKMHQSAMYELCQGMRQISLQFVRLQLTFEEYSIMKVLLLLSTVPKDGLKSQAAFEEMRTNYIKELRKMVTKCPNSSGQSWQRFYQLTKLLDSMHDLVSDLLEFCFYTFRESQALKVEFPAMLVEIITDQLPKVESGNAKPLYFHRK
Nature of the assay: Anti-aldosterone effect on the urinary Na/K ratio in Wistar rats compared to spironolactone. Format: functional. As to conditions: Urine.

For assay [2], the target named is T2, Androgen receptor (Rattus norvegicus) (UniProt P15207).
T2 sequence (whole entry): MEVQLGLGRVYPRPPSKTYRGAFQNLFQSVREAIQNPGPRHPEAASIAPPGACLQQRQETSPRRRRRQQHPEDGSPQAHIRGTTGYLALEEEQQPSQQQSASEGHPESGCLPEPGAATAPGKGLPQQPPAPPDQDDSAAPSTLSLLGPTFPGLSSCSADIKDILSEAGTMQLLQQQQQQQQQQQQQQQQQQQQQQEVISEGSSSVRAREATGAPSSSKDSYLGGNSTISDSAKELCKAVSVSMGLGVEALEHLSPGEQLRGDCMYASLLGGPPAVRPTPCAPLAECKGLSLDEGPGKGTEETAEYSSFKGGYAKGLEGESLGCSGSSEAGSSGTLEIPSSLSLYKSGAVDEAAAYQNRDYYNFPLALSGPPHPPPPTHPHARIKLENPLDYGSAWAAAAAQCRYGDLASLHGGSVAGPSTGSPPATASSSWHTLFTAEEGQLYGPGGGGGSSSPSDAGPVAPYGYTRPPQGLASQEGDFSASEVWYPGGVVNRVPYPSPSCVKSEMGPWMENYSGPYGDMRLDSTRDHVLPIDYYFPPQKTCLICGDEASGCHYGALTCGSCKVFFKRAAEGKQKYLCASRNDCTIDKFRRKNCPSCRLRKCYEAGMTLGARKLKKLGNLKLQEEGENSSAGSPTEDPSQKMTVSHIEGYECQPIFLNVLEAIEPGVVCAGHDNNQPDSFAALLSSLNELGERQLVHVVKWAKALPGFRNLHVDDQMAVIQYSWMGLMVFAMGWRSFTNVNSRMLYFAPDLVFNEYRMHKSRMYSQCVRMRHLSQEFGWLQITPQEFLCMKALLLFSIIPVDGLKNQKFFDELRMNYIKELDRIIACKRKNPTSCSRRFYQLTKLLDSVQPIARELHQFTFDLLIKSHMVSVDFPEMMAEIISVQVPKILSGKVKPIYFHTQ
Kind of assay: Binding to rat prostate Androgen receptor compared to dihydrotestosterone. As to conditions: Prostate gland.

Assay [3] has as its target T3, Progesterone receptor (Oryctolagus cuniculus) (UniProt P06186).
T3 sequence (whole entry): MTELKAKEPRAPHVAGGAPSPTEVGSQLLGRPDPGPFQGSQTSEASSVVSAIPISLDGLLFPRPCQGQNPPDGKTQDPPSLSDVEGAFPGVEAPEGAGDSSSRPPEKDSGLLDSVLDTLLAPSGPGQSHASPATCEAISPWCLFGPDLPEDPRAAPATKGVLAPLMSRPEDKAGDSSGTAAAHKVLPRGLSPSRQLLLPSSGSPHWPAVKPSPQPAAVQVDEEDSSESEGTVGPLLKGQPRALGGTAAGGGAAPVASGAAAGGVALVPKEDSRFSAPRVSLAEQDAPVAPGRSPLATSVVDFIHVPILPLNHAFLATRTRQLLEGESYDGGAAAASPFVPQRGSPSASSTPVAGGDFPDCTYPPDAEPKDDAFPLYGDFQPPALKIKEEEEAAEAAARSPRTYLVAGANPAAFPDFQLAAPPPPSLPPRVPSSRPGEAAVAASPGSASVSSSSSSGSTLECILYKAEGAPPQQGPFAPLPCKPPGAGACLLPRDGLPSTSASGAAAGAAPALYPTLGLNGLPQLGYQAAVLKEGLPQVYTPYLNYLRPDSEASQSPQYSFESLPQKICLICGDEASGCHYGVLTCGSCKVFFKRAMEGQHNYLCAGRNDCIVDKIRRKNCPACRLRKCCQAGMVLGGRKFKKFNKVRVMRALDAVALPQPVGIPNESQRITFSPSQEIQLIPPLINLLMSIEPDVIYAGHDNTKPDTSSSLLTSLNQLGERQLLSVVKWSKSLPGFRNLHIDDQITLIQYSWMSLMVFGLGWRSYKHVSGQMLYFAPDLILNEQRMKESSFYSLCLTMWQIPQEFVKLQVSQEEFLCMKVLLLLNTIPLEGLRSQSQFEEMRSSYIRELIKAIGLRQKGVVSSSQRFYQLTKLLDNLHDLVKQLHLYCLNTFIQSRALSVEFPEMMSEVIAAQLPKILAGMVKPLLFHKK
Kind of assay: Binding to rabbit uterine progesterone receptor compared to progesterone.

In assay [4] the target is T3, Progesterone receptor (Oryctolagus cuniculus). Nature of the assay: Progestational activity on oral administration (100 mg) in rabbit. Format: functional, organism-based.
For assay [5] the target is unchanged. Nature of the assay: Progestational activity on oral administration (300 mg) in rabbit. Format: functional, organism-based.
The target is the same in assay [6]. Nature of the assay: Progestational activity on oral administration (30 mg) in rabbit. Format: functional, organism-based.
For assay [7], the target named is T2, Androgen receptor (Rattus norvegicus). Kind of assay: Anogenital distance in rats after 50 mg/animal oral dose in Fetal Feminization test (control = 2.30+/-0.16). Format: functional.
The test system of assay [8] is Rattus norvegicus. Nature of the assay: Ovulation inhibitory activity in rats after 100 mg oral dose. Format: functional.
Assay [9] has as its system Rattus norvegicus. Nature of the assay: Ovulation inhibitory activity in rats after 30 mg oral dose. Format: functional.
In assay [10] the target is T2, Androgen receptor (Rattus norvegicus). Kind of assay: Weight of seminal vesicle as anti-androgenic activity in rat after oral dose of 24+0.1 mg/day with testosterone propionate(0.1 mg/day). Format: functional.
For assay [11] the target is unchanged. Kind of assay: Weight of prostate as anti-androgenic activity in rat after oral dose of 12+0.1 mg/day with testosterone propionate(0.1 mg/day). Format: functional. The settings on record: Prostate gland.
The target is the same in assay [12]. Kind of assay: Weight of prostate as anti-androgenic activity in rat after oral dose of 24+0.1 mg/day with testosterone propionate(0.1 mg/day). Format: functional. The settings on record: Prostate gland.
Assay [13] shares this target. Kind of assay: Weight of seminal vesicle as anti-androgenic activity in rat after oral dose of 12+0.1 mg/day with testosterone propionate(0.1 mg/day). Format: functional.
Assay [14] shares this target. The settings on record: Prostate gland.
Description: Weight of prostate as anti-androgenic activity in rat after oral dose of 48+0.1 mg/day with testosterone propionate(0.1 mg/day)
Assay [15] shares this target. As to conditions: Prostate gland. This is another data set of the same source.
Description: Weight of prostate as anti-androgenic activity in rat after oral dose of 96+0.1 mg/day with testosterone propionate(0.1 mg/day)
For assay [16] the target is unchanged. As to conditions: Seminal vesicle.
Description: Weight of seminal vesicle as anti-androgenic activity in rat after oral dose of 48+0.1 mg/day with testosterone propionate(0.1 mg/day)
Assay [17] shares this target. As to conditions: Seminal vesicle. The source holds these as a separate data set.
Description: Weight of seminal vesicle as anti-androgenic activity in rat after oral dose of 96+0.1 mg/day with testosterone propionate(0.1 mg/day)

For orientation: Inhibition means the percentage by which the read-out fell short of the control.

The structures appear in SMILES notation. Some results are limits rather than exact numbers.

For the molecule `COC(=O)[C@@H]1CC2=CC(=O)C=CC2(C)C2CCC3(C)C(C21)[C@@H]1C[C@@H]1C31CCC(=O)O1` (stereo partly specified), the Relative potency in assay [1] is under 50.

Take `COC(=O)[C@@H]1CC2=CC(=O)CCC2(C)C2CCC3(C)C(C21)[C@@H]1C[C@@H]1C31CCC(=O)O1` (stereo partly specified): the Competition factor in [2] amounted to 112; in [3], 25. Besides, the McPhail index in [4] was found to be 1.8; in [5] it was 1.8; in assay [6], 1.4. The molecule further gave an Anogenital distance in [7] of 2 mm. For the same molecule, the Inhibition in assay [8] and in assay [9] was 0% throughout. For the same molecule, in assay [1], the Relative potency was found to be 217. Moreover, the Organ weight was 37 mg in [10]; 38 mg in assay [11]; 33 mg in [12]; 44 mg in assay [13]; 41 mg in assay [14]; 30 mg in assay [15]. For the same molecule, the figures for the Organ weight in assay [16] and in assay [17] were 47 mg and 42 mg, respectively.

`COC(=O)[C@@H]1CC2=CC(=O)[C@@H]3C[C@@H]3C2(C)C2CCC3(C)C(C21)[C@H]1C[C@H]1C31CCC(=O)O1` (stereo partly specified): the Competition factor in assay [2] is 53; in assay [3] it was 98. For the same molecule, the Relative potency in assay [1] is 140.

`CC(C)OC(=O)[C@@H]1CC2=CC(=O)[C@@H]3C[C@@H]3C2(C)C2CCC3(C)C(C21)[C@@H]1C[C@@H]1C31CCC(=O)O1` (stereo partly specified): the Competition factor in assay [2] came out at 40; in [3] it was 19. Also, the Relative potency in [1] stood at 140.

On to `CC(C)OC(=O)[C@@H]1CC2=CC(=O)C=CC2(C)C2CCC3(C)C(C21)[C@@H]1C[C@@H]1C31CCC(=O)O1` (stereo partly specified), for which the values for the Competition factor in assay [2] and in assay [3] were 266 and 113, respectively. In addition, in assay [1], the Relative potency is under 50.

In the case of `COC(=O)[C@@H]1CC2=CC(=O)[C@@H]3C[C@@H]3C2(C)C2CCC3(C)C(C21)[C@@H]1C[C@@H]1C31CCC(=O)O1` (stereo partly specified), the Competition factor in [2] came to 29; in assay [3], 92. In addition, the Relative potency in assay [1] worked out at 140.

On to `CCOC(=O)[C@@H]1CC2=CC(=O)CCC2(C)C2CCC3(C)C(C21)[C@@H]1C[C@@H]1C31CCC(=O)O1` (stereo partly specified), for which the Competition factor in [2] was 98; in assay [3] it was 33. For the same molecule, the Relative potency in assay [1] was under 50.

Regarding `COC(=O)[C@@H]1CC2=CC(=O)CCC2(C)C2CCC3(C)C(C21)[C@H]1C[C@H]1C31CCC(=O)O1` (stereo partly specified), the Competition factor in assay [2] amounted to 121; in [3], 10. Further, the Relative potency in [1] is 50.

`CC(=O)S[C@@H]1CC2=CC(=O)CC[C@]2(C)[C@H]2CC[C@@]3(C)[C@@H](CC[C@@]34CCC(=O)O4)[C@H]12` [SPIRONOLACTONE]: in assay [8], the Inhibition was 100%.

In the case of `CC(C)OC(=O)[C@@H]1CC2=CC(=O)CCC2(C)C2CCC3(C)C(C21)[C@@H]1C[C@@H]1C31CCC(=O)O1` (stereo partly specified), the Competition factor in assay [2] was 67; in [3] it was 12. In addition, in [1], the Relative potency is under 50.

For `CCOC(=O)[C@@H]1CC2=CC(=O)C=CC2(C)C2CCC3(C)C(C21)[C@@H]1C[C@@H]1C31CCC(=O)O1` (stereo partly specified), the Competition factor in [3] amounted to 85. Moreover, the Relative potency in assay [1] was under 50.

With `CCCOC(=O)[C@@H]1CC2=CC(=O)[C@@H]3C[C@@H]3C2(C)C2CCC3(C)C(C21)[C@@H]1C[C@@H]1C31CCC(=O)O1` (stereo partly specified), the results for the Competition factor in assay [2] and in [3] were 33 and 19, respectively. Further, in [1], the Relative potency came out at 39.

For the molecule `COC(=O)[C@@H]1CC2=CC(=O)CCC2(C)C2CCC3(C)C(CCC34CCC(=O)O4)C21` (stereo partly specified), the Competition factor in assay [2] amounted to 142; in assay [3], 130. The Relative potency in assay [1] came out at 104.

`CCOC(=O)[C@@H]1CC2=CC(=O)[C@@H]3C[C@@H]3C2(C)C2CCC3(C)C(C21)[C@@H]1C[C@@H]1C31CCC(=O)O1` (stereo partly specified): the Competition factor in assay [2] is 28; in [3], 34. The Relative potency in assay [1] was found to be 187.
